Structures can show the parent of a compound that is named as a salt.
Test system: patients with acid reflux / GI tract symptoms
Assay: Case histories of patients treated with HCl-Ease capsules
Assay type: in vivo, human
Settings: previous treatment prescribed elsewhere, patient history
From the text: The invention is further illustrated by the following case histories, in which the inventive capsules as described above as the specific embodiment are referred to as HCl-Ease.

SMILES | outcome of other treatment as stated by patient
C[N+](C)(C)CC(=O)O [Betaine HCL] | greatly increased their symptoms
COc1ccc2[nH]c([S+]([O-])Cc3ncc(C)c(OC)c3C)nc2c1 (centres unmarked) [Prilosec] | didn't help much

Source: US9629887B1, “Control of acid reflux with botanicals” (Biotics Research Corporation, priority 2014, dated 2017)
